# Assay results from the supplement of paper PMC11451515.
# System: P12-Ichikawa
# Test: cell viability relative to DMSO control; higher = less cytotoxic
# Settings: 48 h
# Outline: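 Library compounds in DMSO were pin-dosed in an 11-point threefold series (47 μM to 0.79 nM) onto leukemia cells in 1536-well plates (5 μl). Plates held 500 cells/well of NOMO1 or SEM or 1000 cells/well of P12-Ichikawa, each adapted for at least four passages in each medium. Luminescence was read with CellTiter-Glo One after 48 h at 37°C. Viability means the per-plate percentage relative to DMSO wells, using cell-free wells as background.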
# [1] = HPLM + 10% dialyzed FBS, 0.000781 µM
# [2] = HPLM + 10% dialyzed FBS, 0.00234 µM
# [3] = HPLM + 10% dialyzed FBS, 0.00702 µM
# [4] = HPLM + 10% dialyzed FBS, 0.0211 µM
# [5] = HPLM + 10% dialyzed FBS, 0.0632 µM
# [6] = HPLM + 10% dialyzed FBS, 0.19 µM
# [7] = HPLM + 10% dialyzed FBS, 0.569 µM
# [8] = HPLM + 10% dialyzed FBS, 1.71 µM
# [9] = HPLM + 10% dialyzed FBS, 5.12 µM
# [10] = HPLM + 10% dialyzed FBS, 15.4 µM
# [11] = HPLM + 10% dialyzed FBS, 46.1 µM
# [12] = RPMI 5 mM glucose + 10% FBS, 0.000781 µM
# [13] = RPMI 5 mM glucose + 10% FBS, 0.00234 µM
# [14] = RPMI 5 mM glucose + 10% FBS, 0.00702 µM
# [15] = RPMI 5 mM glucose + 10% FBS, 0.0211 µM
# [16] = RPMI 5 mM glucose + 10% FBS, 0.0632 µM
# [17] = RPMI 5 mM glucose + 10% FBS, 0.19 µM
# [18] = RPMI 5 mM glucose + 10% FBS, 0.569 µM
# [19] = RPMI 5 mM glucose + 10% FBS, 1.71 µM
# [20] = RPMI 5 mM glucose + 10% FBS, 5.12 µM
# [21] = RPMI 5 mM glucose + 10% FBS, 15.4 µM
# [22] = RPMI 5 mM glucose + 10% FBS, 46.1 µM
# [23] = RPMI 5 mM glucose + 10% dialyzed FBS, 0.000781 µM
# [24] = RPMI 5 mM glucose + 10% dialyzed FBS, 0.00234 µM
# [25] = RPMI 5 mM glucose + 10% dialyzed FBS, 0.00702 µM
# [26] = RPMI 5 mM glucose + 10% dialyzed FBS, 0.0211 µM
# [27] = RPMI 5 mM glucose + 10% dialyzed FBS, 0.0632 µM
# [28] = RPMI 5 mM glucose + 10% dialyzed FBS, 0.19 µM
# [29] = RPMI 5 mM glucose + 10% dialyzed FBS, 0.569 µM
# [30] = RPMI 5 mM glucose + 10% dialyzed FBS, 1.71 µM
# [31] = RPMI 5 mM glucose + 10% dialyzed FBS, 5.12 µM
# [32] = RPMI 5 mM glucose + 10% dialyzed FBS, 15.4 µM
# [33] = RPMI 5 mM glucose + 10% dialyzed FBS, 46.1 µM
SMILES,cell viability [1] [%],cell viability [2] [%],cell viability [3] [%],cell viability [4] [%],cell viability [5] [%],cell viability [6] [%],cell viability [7] [%],cell viability [8] [%],cell viability [9] [%],cell viability [10] [%],cell viability [11] [%],cell viability [12] [%],cell viability [13] [%],cell viability [14] [%],cell viability [15] [%],cell viability [16] [%],cell viability [17] [%],cell viability [18] [%],cell viability [19] [%],cell viability [20] [%],cell viability [21] [%],cell viability [22] [%],cell viability [23] [%],cell viability [24] [%],cell viability [25] [%],cell viability [26] [%],cell viability [27] [%],cell viability [28] [%],cell viability [29] [%],cell viability [30] [%],cell viability [31] [%],cell viability [32] [%],cell viability [33] [%]
Oc1cc(-c2nc(-c3ccccc3)[nH]c2-c2ccncc2)ccc1Cl,109,110,110,115,118,117,106,101,92.7,82.9,65.7,122,111,117,122,119,118,111,113,84.7,74.5,45.2,–,–,–,–,–,–,–,–,–,–,–
C[S+](=O)([O-])Oc1ccc2c(NC(N)=O)c(C(=O)c3ccc(Cl)cc3Cl)oc2c1,113,120,122,116,120,113,122,119,108,99.9,66.5,112,109,121,117,130,116,123,125,129,109,73.3,116,118,112,110,117,122,122,126,118,105,91.5
COc1ccc(F)c(F)c1C(=O)c1cnc(NC2CCN([S+](C)(=O)[O-])CC2)nc1N,111,116,114,115,118,112,87.4,77.6,86,67.6,3.92,113,114,126,116,116,117,78.3,72.2,63.7,43.2,4.54,114,121,116,127,116,113,86.8,78.2,58.4,45.9,5.54
CNC[C@H](O)[C@@H](O)[C@H](O)[C@H](O)CO,114,124,122,130,123,125,120,134,128,119,119,–,–,–,–,–,–,–,–,–,–,–,109,126,124,125,125,126,122,131,123,119,126
CC(=O)SC[C@@H](C)C(=O)N1CCC[C@H]1C(=O)N[C@@H](Cc1ccccc1)C(=O)O,99.5,108,108,104,113,107,106,104,102,101,94.1,103,93.2,97.6,100,102,97.8,102,96.7,98.4,91.3,90,99.7,101,102,101,99.7,100,95.4,101,92.2,90.8,85.2
CCCCc1ccc2[nH]c(NC(=O)OC)nc2c1,104,106,105,101,85.9,22.9,18.4,27.1,13.8,16.2,11,99.7,112,101,106,92.6,17.6,16.8,26.7,24.1,22.2,16.5,92.4,98.4,103,102,97.5,31,25.7,37.7,27.9,29.3,23.1
c1cc(-c2cnn3cc(-c4ccc(OCCN5CCCCC5)cc4)cnc23)ccn1,90.3,91.1,93.8,91.8,97,93.7,91.7,91.4,89.6,85.6,2.9,83.8,81.9,96.7,86.9,87.5,79,76,84.2,85.9,83.2,50.5,89.2,86.8,84.1,88.5,86.8,85.4,78.8,83.7,78.2,88,85.7
COc1ccc(CCC(=O)c2c(O)cc(O[C@@H]3O[C@H](CO)[C@@H](O)[C@H](O)[C@H]3O[C@@H]3O[C@@H](C)[C@H](O)[C@@H](O)[C@H]3O)cc2O)cc1O,115,117,116,110,119,116,117,113,107,107,38.8,–,–,–,–,–,–,–,–,–,–,–,105,115,118,116,108,114,111,113,107,106,105
